Values joined by “and” are separate entries in the source; they are usually repeats but may differ in a detail not shown here. Equal entries are not always repeated. Where two headings read alike, the source gives them in different places.
Key:
[1] = tested on: TOV-112D human ovarian cancer cells; assay: cells
Description: (§1) Drug Titrations: TAXOL was titered to determine the concentrations used in combination with AMD3100. Cells were cultured in 96-well black assay plates with optically clear bottoms (500 and 2500 cells per well were tested), including a standard curve plate. ID8 cells were then exposed to increasing concentrations of paclitaxel (1, 0.5, 0.15, 0.05, 0.015, and 0.005 μM), and TOV cells were exposed to 15, 5, and 1 nM Taxol for 48 or 96 hr. Proliferation was measured by measuring the amount of dsDNA using CyQuant reagent and read on a Perkin Elmer Envision 2103. AMD3100 (50, 25, 10, 5, 2.5, and 1 μM) was titered in the same manner. Each condition was done in triplicate. Drugs were not replenished during any of the experiments. Data was analyzed in Prism 7.
Simultaneous Delivery of Small Molecules and Chemotherapy: To determine the effect of AMD3100 alone or in combination with TAXOL, cell proliferation was measured by seeding 2500 TOV cells and 500 ID8 cell per well in a clear bottom 96-well black assay plates. AMD3100 (final concentrations: 10 μM for ID8 and 2.5 μM for TOV) and Paclitaxel (final concentrations: 15 and 5 nM for ID8 cells and 5 and 1 nM for TOV cells) were mixed with DMEM. 100 μL of the mixture was added to the cells. Each condition was done in triplicate. […] Standard curve plates were washed the same day the experiment was done. Plates were stored at −80° C. after washing and proliferation rate was measured then by CyQuant assay.

[2] = tested on: ID8 cells; assay: Soft-agar colony formation, ID8; assay type: cell-based, murine
Description: (§2) ID8 and TOV Colony Formation in The Presence of Small Molecules and/or Chemotherapy: Bottom Layer Hard Agar: 2×DMEM and 0.8% agar stock was prepared and adjusted to 42° C. in a water bath for 30 min. The agar and 2×DMEM were mixed (1:2). 500 μL of the mixture was then added to each well of a 24 well plate, and the plate was rocked to distribute evenly and allowed to solidify at room temperature in a tissue culture hood. Upper Layer Soft Agar: 0.6% agar stock was prepared adjusted to 42° C. in a water bath for 30 min. During this time, ID8 cells were trypsinized, and 40,000 cells per mL suspension in 1×DMEM was made. Cell suspensions were then mixed with soft agar stock (1:2) and 500 μL of the mixture was then added to each well. Each condition was in triplicate.
(§3) Drug-DMEM stocks were made to achieve the proper concentrations in 1.1 mL, the total volume of each well: AMD3100 (10 μM and 1 μM for ID8 cells, 5 μM and 2.5 μM for TOV cells) and TAXOL (0.015 μM and 0.005 μM). 100 μL of each drug was added to the relative wells in triplicate. Plates were then incubated in a humidified incubator with […] for 20-30 days. At the end of the experiment, each well was stained with 0.005% crystal violet in 15% ethanol (140 μL per well) and plates were incubated again for several hours then photos were taken using a microscope. ID8 Colonies equal or bigger […] and TOV colonies equal or bigger than […] were counted using Image J software.

[3] = tested on: ID8 cells
Description: (§4) Sequential Delivery of Small Molecules and Chemotherapy: ID8 cells were exposed to AMD3100 in a 6 well plate (2.5×10^5 cells/well) for 72 hr. Cells were then washed and counted. Cell viability was checked by propidium iodide. For each condition, 500 cells per well of viable ID8 cells were then seeded into a 96 well black assay plate. ID8 cells were then incubated in DMEM containing a carrier, AMD3100 10 μM, TAXOL 0.005 μM, or both for another 72 hr. For TOV-112D cells, initial 72 hr incubation was with AMD3100 5 μM, followed by 96 hr incubation in media containing AMD3100 5 μM, TAXOL 1 nM, or both. At the conclusion of the experiment, plates were washed and dsDNA was measured via CyQuant assay.

[4] = tested on: TOV-112D cells
Description: as §4

[5] = tested on: TOV-112D cells; assay: Soft-agar colony formation, TOV-112D; assay type: cell-based, human
Description: as §2
as §3, with “Drug-DMEM stocks were made to achieve the proper concentrations in 1.1 mL, the total volume of each well: AMD3100 (10 μM and 1 μM for ID8 cells, 5 μM and 2.5 μM for TOV cells) and TAXOL (0.015 μM and 0.005 μM).” left out

[6] = tested on: human ovarian cancer; conditions: reported; read-out: IC50 of paclitaxel in human ovarian cancer; cited from earlier work
[7] = tested on: ID8 murine ovarian cancer cells; assay: cells
Description: as §1
Simultaneous Delivery of Small Molecules and Chemotherapy: To determine the effect of AMD3100 alone or in combination with TAXOL, cell proliferation was measured by seeding 2500 TOV cells and 500 ID8 cell per well in a clear bottom 96-well black assay plates. AMD3100 (final concentrations: 10 μM for ID8 and 2.5 μM for TOV) and Paclitaxel (final concentrations: 15 and 5 nM for ID8 cells and 5 and 1 nM for TOV cells) were mixed with DMEM. 100 μL of the mixture was added to the cells. Each condition was done in triplicate. Plates were incubated at 37° C. with 5% CO2 for 72 hr (ID8) and 96 hr (TOV-112D). Standard curve plates were washed the same day the experiment was done. Plates were stored at −80° C. after washing and proliferation rate was measured then by CyQuant assay.

[8] = tested on: 40L; assay: Survival in intraperitoneal malignant mesothelioma model, 40L; assay type: in vivo; conditions: 40L model, C57BL/6 mice; IP once a week for four weeks; AMD3100 1 mg/kg, VIC-008 20 μg per mouse
Description: (§5) Intraperitoneal malignant mesothelioma (MM) models were established in immunocompetent C57BL/6 mice using syngeneic 40L and AE17 cell lines. Here, we tested the effect of AMD3100 and VIC-008, alone or in combination, on mouse survival in the mesothelioma-bearing mice. […], alone, was administered at 20 μg per mouse intraperitoneally (IP) once a week for four successive weeks. AMD3100 was administered at 1 mg/kg of mouse body weight via IP injection once a week for four successive weeks.

[9] = tested on: AE17; assay: Survival in intraperitoneal malignant mesothelioma model, AE17; assay type: in vivo; conditions: C57BL/6 mice, IP once a week for four weeks, AMD3100 1 mg/kg, VIC-008 20 μg per mouse
Description: as §5

[10] = target: CXCR7 (Homo sapiens, UniProt P25106); conditions: TOV-112D cells
Chain of CXCR7 (Homo sapiens, UniProt P25106) (P25106 whole entry): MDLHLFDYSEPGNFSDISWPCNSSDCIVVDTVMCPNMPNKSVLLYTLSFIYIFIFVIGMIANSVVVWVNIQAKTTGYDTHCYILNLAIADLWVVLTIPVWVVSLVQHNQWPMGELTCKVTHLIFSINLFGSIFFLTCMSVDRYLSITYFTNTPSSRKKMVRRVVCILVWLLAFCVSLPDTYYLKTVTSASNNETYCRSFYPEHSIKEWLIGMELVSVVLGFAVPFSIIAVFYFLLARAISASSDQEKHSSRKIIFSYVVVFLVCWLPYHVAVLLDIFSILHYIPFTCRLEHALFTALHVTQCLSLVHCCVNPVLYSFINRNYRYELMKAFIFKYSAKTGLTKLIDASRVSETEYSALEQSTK
Description: (§6) CXCR4, CXCR7, and CXCL12 expression in ovarian cancer cells: ID8 or TOV-112D cells were plated at 750,000 cells/well in 6-well plates. Conditions were WT, WT+AMD3100 (10 μM for ID8/5 μM for TOV-112D, MedChemExpress HY-50912 and AbCam ab1207180) 16 hrs, and WT+AMD3100 4 hrs. 2× drug stocks were made in complete DMEM, final volume per well was 2 mL. GolgiPlug (BD Pharmingen) was added to all wells 3 hrs prior to harvesting according to manufacturer's protocol. CXCL12, CXCR4, and CXCR7 expression was measured by Flow Cytometry. Antibodies: anti-h/mCXCL12/SDF-1 APC (IC350A, RandD Systems), anti-mCXCR4/CD184 PE (551966, BD Bioscience), anti-hCXCR4/CD184 PE (306506, BioLegend), anti-h/mCXCR7 PE-Cy7 (331115, BioLegend).
(§7) Flow Cytometry: Cells were harvested using enzyme free dissociation buffer (Thermo Fisher Scientific 13151014) and counted using Trypan Blue viability dye (Corning). Equal numbers of cells were labeled with antibody for surface markers. Thereafter cells were stained for viability and where needed with secondary antibody. […] All incubation steps were performed at 4° C. on a rocker in the dark. Cells were washed 2× before analysis in cell staining buffer consisting of PBS containing 0.5% BSA, 0.02% Sodium Azide, and 2 mM EDTA. Analysis of samples in duplicate was done with a BD Fortessa collecting a minimum of 10,000 events per sample and using FlowJo software.

[11] = target: CXCR4 (Homo sapiens, UniProt P61073); conditions: TOV-112D cells; for CXCR4 reduced by: AMD3100 5 μM, normalized
Chain of CXCR4 (Homo sapiens, UniProt P61073) (P61073 whole entry): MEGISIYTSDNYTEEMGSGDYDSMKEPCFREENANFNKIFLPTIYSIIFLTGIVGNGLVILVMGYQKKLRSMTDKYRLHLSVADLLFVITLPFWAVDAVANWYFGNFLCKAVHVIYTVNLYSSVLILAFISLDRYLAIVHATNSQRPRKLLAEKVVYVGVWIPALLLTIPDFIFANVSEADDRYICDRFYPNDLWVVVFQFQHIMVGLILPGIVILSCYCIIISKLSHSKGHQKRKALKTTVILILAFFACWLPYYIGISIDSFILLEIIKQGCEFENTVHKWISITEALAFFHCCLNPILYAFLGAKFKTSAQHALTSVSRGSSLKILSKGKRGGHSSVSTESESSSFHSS
Description: as §6, §7

[12] = target: CXCR7 (Mus musculus, UniProt P56485); conditions: ID8 cells
Chain of CXCR7 (Mus musculus, UniProt P56485) (P56485 whole entry): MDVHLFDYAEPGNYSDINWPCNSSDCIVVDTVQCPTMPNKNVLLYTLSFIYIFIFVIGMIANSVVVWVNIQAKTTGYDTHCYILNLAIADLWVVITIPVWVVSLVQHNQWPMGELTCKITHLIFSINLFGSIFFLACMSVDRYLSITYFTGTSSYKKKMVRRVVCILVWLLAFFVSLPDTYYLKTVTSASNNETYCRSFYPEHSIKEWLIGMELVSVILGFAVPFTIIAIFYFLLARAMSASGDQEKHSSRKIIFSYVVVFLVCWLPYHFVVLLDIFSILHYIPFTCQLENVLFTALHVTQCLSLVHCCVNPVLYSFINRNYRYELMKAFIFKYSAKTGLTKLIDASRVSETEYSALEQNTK
Description: as §6, §7

[13] = tested on: CXCL12; conditions: for CXCL12 expression reduced by: 4 or 18 hours, normalized; for overall expression of CXCL12, significance of change: AMD3100 for either 4 or 18 hours
Description: as §6, §7

[14] = tested on: ID8-Luc cells; conditions: C57/B6 mice, 1 mg/kg IP every 72 hours (subtherapeutic)
Description: Six- to eight-week old C57/B6 mice were injected with 5e6 ID8-Luc cells. The presence of the tumor was confirmed by luciferase imaging. The tumor bearing mice were treated with 1 mg/kg AMD-3100 by intraperitoneal (IP) injection every 72 hours or with TAXOL® (10 mg/ml).
Six- to eight-week old C57/B16 mice were injected with 5e6 ID8-Luc cells. The presence of the tumor was confirmed by luciferase imaging. The tumor bearing mice were treated with 1 mg/kg AMD-3100 by IP injection every 72 hours. In the combination treatment, the AMD3100 (1 mg/kg) and ruxolitinib (30 mg/kg) were administered concurrently but not simultaneously (i.e., administration was staggered).

[15] = target: CXCR4 (Mus musculus, UniProt P70658); conditions: ID8 cells; for expression of CXCR4 reduced by: AMD3100 10 μM, normalized, negative control 0, untreated 100
Chain of CXCR4 (Mus musculus, UniProt P70658) (P70658 whole entry): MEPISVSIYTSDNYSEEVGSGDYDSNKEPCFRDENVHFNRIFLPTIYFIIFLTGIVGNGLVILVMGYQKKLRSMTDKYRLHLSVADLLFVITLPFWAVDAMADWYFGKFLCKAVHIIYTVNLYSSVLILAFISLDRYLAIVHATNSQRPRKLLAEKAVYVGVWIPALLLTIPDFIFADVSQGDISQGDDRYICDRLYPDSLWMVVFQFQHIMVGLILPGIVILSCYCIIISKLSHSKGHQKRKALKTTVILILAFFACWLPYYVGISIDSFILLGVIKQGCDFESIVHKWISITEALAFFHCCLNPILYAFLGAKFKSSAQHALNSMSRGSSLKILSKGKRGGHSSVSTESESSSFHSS

[16] = AMD3100 for either 4 or 18 hours

With CC(=O)O[C@H]1C(=O)[C@@]2(C)[C@H]([C@H](OC(=O)c3ccccc3)[C@]3(O)C[C@H](OC(=O)[C@H](O)[C@@H](NC(=O)c4ccccc4)c4ccccc4)C(C)=C1C3(C)C)[C@]1(OC(C)=O)CO[C@@H]1C[C@@H]2O [TAXOL, Paclitaxel] the IC50 ([1]; Homo sapiens, TOV112D, read-out: IC50, human ovarian cancer cells (TOV)) was 2.5 nM, the inhibition at 0.005 µM ([1]; Homo sapiens, TOV112D, read-out: proliferation inhibition) was 89% and the “TOV-112D cell proliferation inhibition” value ([1]; TAXOL 1 nM, after 72 hours) was “did not significantly inhibit”. The “reduced ID8 colony formation by” value ([2]; TAXOL 5 nM) was 56% and 57%, the “reduced ID8 colony formation by” value ([2]; TAXOL 15 nM) was 94% and the “cell proliferation reduced by” value ([3]; ID8, no AMD3100 pre-treatment, re-plated in TAXOL 0.005 μM 72 hr) was 50%. For the same compound, the “proliferation reduced by” value ([4]; control media, then TAXOL 1 nM 96 hr) was 24%, the TOV-112D colony formation ([5]; TAXOL 5 nM) was “completely preventing” and the “reduced colony formation by” value ([5]; TOV-112D, TAXOL 1 nM alone, non-significant) was 20%. The IC50 [6] was at most 3000 nM, the IC50 ([7]; Mus musculus, ID8, 72 h, read-out: IC50, ID8 cell proliferation) was 5 nM and the inhibition at 0.005 µM ([7]; Mus musculus, ID8, read-out: proliferation inhibition) was 50%. The IC50 ([7]; Mus musculus, read-out: IC50, ID8 murine ovarian cancer cells) was 5 nM.

In the case of Plerixafor octahydrochioride [AMD3100], the “animal survival compared to saline control” value [8] is reported as “modest benefit to survival”, the “limited cell growth by” value ([1]; TOV-112D cells, AMD3100 2.5 μM alone) is reported as 24.5% and the “animal survival compared to saline control” value [9] is reported as “modest benefit to survival”. For the same compound, the “decreased colony formation by” value ([2]; ID8, AMD3100 1 M (so in the source)) was 16%, the “decreased colony formation by” value ([2]; ID8, AMD3100 10 M (so in the source)) was 44% and the “proliferated more than untreated cells” value ([3]; ID8, no pre-treatment, re-plated in AMD3100 10 μM media 72 hr, not significant) was 22%. The “proliferation reduced by, vs untreated control cells” value ([3]; ID8, pre-treated with AMD3100 72 hr, reseeded in AMD3100 10 μM 72 hr) was 48%, the increased growth ([3]; ID8, treated with AMD3100 and then incubated without drug) was 22% and the “sensitization of cells to subsequent TAXOL by AMD3100 pre-treatment” value ([3]; ID8, vs untreated control cells then incubated with TAXOL) was “did not significantly sensitize”. The “sensitization of cells by AMD3100 pre-treatment” value [4] was “did not significantly sensitize”, the “proliferation reduced by” value ([4]; AMD3100 5 μM 72 hr, then re-plated in AMD3100 96 hrs) was 79.5% and the “proliferation reduced by” value ([4]; AMD3100 5 μM 72 hr, then re-plated in control media 96 hrs) was 49%. For the same compound, the “proliferation reduced by” value ([4]; control media, then AMD3100 5 μM 96 hr) was 51%, the “sensitization of cells by AMD3100 pre-treatment” value ([4]; listed as AMD-3100) was “significantly sensitized” and the CXCR7 expression ([10]; AMD3100 5 μM, 18 hours, normalized) was “returned to basal levels”. The “CXCR7 expression increased by” value ([10]; AMD3100 5 μM, after 4 hours, normalized) was 20%, the “surface expression of CXCR7, significance of change” value [10, 16] was “did not significantly alter” and the “CXCR4 reduced by” value ([11]; 4 hours) was 13%. For the same compound, the “CXCR4 reduced by” value ([11]; 18 hours) was 4%, the “surface expression of CXCR4, significance of change” value [11, 16] was “did not significantly alter” and the “CXCR7 expression increased by” value ([12]; AMD3100 10 μM, 4 or 18 hours, normalized) was 6%-11. For the same compound, the “surface expression of CXCR7, significance of change” value [12, 16] was “did not significantly alter”, the “CXCL12 expression reduced by” value ([13]; ID8 cells, AMD3100 10 μM) was 9-10% and the “overall expression of CXCL12, significance of change” value ([13]; ID8 cells) was “did not significantly alter”. The “CXCL12 expression reduced by” value ([13]; TOV-112D cells, AMD3100 5 μM) was 5-7%, the “overall expression of CXCL12, significance of change” value ([13]; TOV-112D cells) was “did not significantly alter” and the colony formation ([5]; TOV-112D, AMD3100 2.5 μM) was “did not reduce colony formation”. For the same compound, the “ID8 cell growth inhibition” value ([7]; AMD3100 10 μM alone, 72 hours) was “did not significantly inhibit”, the “survival of the tumor bearing mice” value [14] was “extends the survival” and the “expression of CXCR4 reduced by” value ([15]; 4 hours) was 24.5%. For the same compound, the “expression of CXCR4 reduced by” value ([15]; 18 hours) was 23.5% and the “surface expression of CXCR4, significance of change” value [15, 16] was “did not significantly alter”.
